Measured values published in article PMC9174938, “1,4-Dihydropyridine as a Promising Scaffold for Novel Antimicrobials Against Helicobacter pylori” (Frontiers in Microbiology, 2022).

Biological target: T1, HsrA (HP1043) (Helicobacter pylori, UniProt O25684)
T1 construct: gene HP_1043
T1 sequence (O25684 1-223): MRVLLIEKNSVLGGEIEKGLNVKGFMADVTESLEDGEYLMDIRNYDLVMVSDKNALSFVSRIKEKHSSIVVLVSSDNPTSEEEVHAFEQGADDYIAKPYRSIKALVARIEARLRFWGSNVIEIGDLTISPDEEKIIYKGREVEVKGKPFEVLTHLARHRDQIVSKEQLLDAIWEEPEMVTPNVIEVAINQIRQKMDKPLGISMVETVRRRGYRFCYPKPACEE
Test: isothermal titration calorimetry
Format: binding
Details: read-out: ITC^1 / Kd
Text: isothermal titration calorimetry on HsrA (HP1043)

Row | SMILES | Kd
1 | CC1=C(C(=O)OCc2ccccc2)C(c2cc(Br)cc([N+](=O)[O-])c2O)C2=C(CCC(C)(C)C2=O)N1 (stereo not drawn) [HM6] | 5.4 µM
2 | CC1=C(C(=O)OCC(C)C)C(c2cc(Br)ccc2O)C2=C(CC(C)(C)CC2=O)N1 (stereo not drawn) [MD6] | 25 µM
3 | CC1=C(C(=O)OCC(C)C)C(c2cccc([N+](=O)[O-])c2)C2=C(CC(C)(C)CC2=O)N1 (stereo not drawn) [MD2] | 16 µM
4 | CC1=C(C(=O)OCc2ccccc2)C(c2cc(Br)cc(Br)c2O)C2=C(CCC(C)(C)C2=O)N1 (stereo not drawn) [HM4] | 4 µM
5 | CC1=C(C(=O)OCC(C)C)C(c2cc(Br)cc([N+](=O)[O-])c2O)C2=C(CC(C)(C)CC2=O)N1 (stereo not drawn) [MD7] | 23 µM
6 | CC1=C(C(=O)OCC(C)C)C(c2cc([N+](=O)[O-])ccc2O)C2=C(CC(C)(C)CC2=O)N1 (stereo not drawn) [MD1] | 3.5 µM
